Assay results reported in patent US12286442B2, “Methods and materials for increasing transcription factor eb polypeptide levels” (University of Pittsburgh—Of the Commonwealth System of …, priority 2019, dated 2025).

Key:
[1] = test system: TFEB; assay: High content screen measuring TFEB nuclear accumulation (TFEB nuclear/cytosol ratio) in BEAS-2B cells stably expressing TFEB-EGFP; format: cell-based, human; details: 18 hours incubation
Method: FIG. 3. High content screen assay (384 well) measuring TFEB nuclear accumulation. Approximately 2500 primary and immortalized human bronchial epithelial cells (BEAS-2B) stably expressing TFEB-EGFP in 25 μL of HITEs media with 10% FBS were dispensed into 384 well plate (Black with glass bottom) and incubated for 8 hours. Compound serial dilution (DMEM low glucose media with 2% FBS, 25 μL volume) were prepared using a robotic liquid hander. Compound solutions were then added to the cell plate and incubated for 18 hours. Cells were then fixed with 4% PFA followed by DAPI staining. TFEB localization was imaged on the GFP channel along with the DAPI signal using a Cytation 5 high content imager. Images were processed through Biotek Gen5 software; specifically, the DAPI signal was used as the primary mask to quantify the nuclear TFEB-GFP signal. The cytosolic TFEB-GFP signal was quantified through expanding the primary mask. The TFEB nuclear/cytosol ratios were calculated from nuclear TFEB-GFP signal/cytosol TFEB-GFP signal, which determined the compound efficacy. […] Compound activities (μM) were determined by the minimal compound concentration needed to increase TFEB nuclear/cytosol ratio by 25%. Activity: “−” equals >25 μM; “+” equals between 25 μM and >10 μM; “++” equals between ≤10 μM and >1 μM; and “+++” equals […]. N=4.
(§1) Approximately 2300 primary and immortalized human bronchial epithelial cells (BEAS-2B) stably expressing TFEB-EGFP in 25 μL of HITEs media with 10% FBS were dispensed into 384 well plate (Black with glass bottom) and incubated for 8 hours. Compound serial dilution (DMEM low glucose media with 2% FBS, 25 μL volume) were prepared using a robotic liquid hander. Compound solution were then added to the cell plate and incubated for 18 hours. Cells were then fixed with 4% PFA followed by DAPI staining. TFEB localization was imaged on the GFP channel along with the DAPI signal using a Cytation 5 high content imager. Images were processed through Biotek Gen5 software. Specifically, the DAPI signal was used as the primary mask to quantify the nuclear TFEB-GFP signal. Cytosolic TFEB-GFP signal was quantified through expanding the primary mask. The TFEB nuclear/cytosol ratios were calculated from nuclear TFEB-GFP signal/cytosol TFEB-GFP signal, which determined the compound efficacies.
Compounds efficacies (μM) were determined by the minimal compound concentration needed to increase TFEB nuclear/cytosol ratio by 25%. Activity: “+” equals >25 μM; “++” equals between ≤25 μM and >1 μM; and “+++” equals ≤1 μM.
A high-content imaging screen was conducted using Beas2B cells that stably express GFP-TFEB.

[2] = test system: BEAS-2B cells; assay: Toxicity: compound concentration needed to induce greater than 50 percent of cell loss; format: cell-based, human; details: 18 hours incubation
Method: as §1
Toxicity was determined by determining the compound concentration needed to induce greater than 50 percent of cell loss. For toxicity, cell loss of greater than 50 percent at a concentration that equals or is greater than 25 μM was represented as cell loss of greater than 50 percent at a concentration less than 25 μM and greater than 1 μM was represented as and cell loss of greater than 50 percent at a concentration that equals or is less than 1 μM was represented as “+++.” The assay results for compounds 1-202, 214-248, 332, 333, and 352-402 are shown in Table A.

Structure (SMILES)	efficacy (minimal compound concentration needed to increase TFEB nuclear/cytosol ratio by 25%) [1]	toxicity (compound concentration needed to induce greater than 50 percent of cell loss) [2]
c1ccc2c(Nc3ccc4[nH]ncc4c3)nc(N3CCNCC3)nc2c1 [Compound 50]	+ (“+” equals >25 μM)	+ (cell loss of greater than 50 percent at a concentration that equals or is greater than 25 μM was represented as)
Cc1ccc(-c2nc(Nc3cccc(F)c3)c3ccccc3n2)cc1 [Compound 159]	+ (“+” equals >25 μM)	+ (cell loss of greater than 50 percent at a concentration that equals or is greater than 25 μM was represented as)
c1cnc2cc(-c3ccncc3)nc(Nc3ccc4[nH]ccc4c3)c2c1 [Compound 242]	+++ (“+++” equals ≤1 μM)	+ (cell loss of greater than 50 percent at a concentration that equals or is greater than 25 μM was represented as)
c1ccc2c(Nc3ccc4ncoc4c3)nc(-c3ccncc3)nc2c1 [Compound 142]	+++ (“+++” equals ≤1 μM)	+ (cell loss of greater than 50 percent at a concentration that equals or is greater than 25 μM was represented as)
c1ccc2c(Nc3ccc4[nH]ccc4c3)cc(-c3ccncc3)nc2c1 [Compound 67]	+ (“+” equals >25 μM)	+ (cell loss of greater than 50 percent at a concentration that equals or is greater than 25 μM was represented as)
Cc1cccc(Nc2nc(-c3ccncc3)nc3ccccc23)c1 [Compound 185]	+++ (“+++” equals ≤1 μM)	+ (cell loss of greater than 50 percent at a concentration that equals or is greater than 25 μM was represented as)
Cc1c(Nc2nc(-c3ccncc3)nc3ccccc23)ccc2[nH]ccc12 [Compound 61]	+++ (“+++” equals ≤1 μM)	++ (cell loss of greater than 50 percent at a concentration less than 25 μM and greater than 1 μM was represented as)
Cc1nc2ccc(Nc3nc(-c4ccncc4)nc4c(F)cccc34)cc2s1 [Compound 381]	+++ (“+++” equals ≤1 μM)	+ (cell loss of greater than 50 percent at a concentration that equals or is greater than 25 μM was represented as)
N#Cc1nc2ccc(Nc3nc(-c4ccncc4)nc4ccccc34)cc2s1 [Compound 87]	+ (“+” equals >25 μM)	+ (cell loss of greater than 50 percent at a concentration that equals or is greater than 25 μM was represented as)
COc1cc(-n2c(=O)c3ccccc3n(CC(=O)Nc3ccc(C(C)C)cc3)c2=O)cc(OC)c1OC [Compound 214]	+ (“+” equals >25 μM)	+ (cell loss of greater than 50 percent at a concentration that equals or is greater than 25 μM was represented as)
Cc1cc(Nc2nc(-c3ccncc3)nc3ccccc23)cc(C(F)(F)F)c1 [Compound 10]	+ (“+” equals >25 μM)	+ (cell loss of greater than 50 percent at a concentration that equals or is greater than 25 μM was represented as)
c1cc(-c2cc3cnccc3c(Nc3ccc4[nH]c(C5CC5)cc4c3)n2)ccn1 [Compound 399]	+++ (“+++” equals ≤1 μM)	+ (cell loss of greater than 50 percent at a concentration that equals or is greater than 25 μM was represented as)
c1cc(-c2nc(Nc3ccc4ncsc4c3)c3cnccc3n2)ccn1 [Compound 122]	+ (“+” equals >25 μM)	+ (cell loss of greater than 50 percent at a concentration that equals or is greater than 25 μM was represented as)
Cn1ncc2cc(Nc3nc(-c4ccncc4)nc4ccccc34)ccc21 [Compound 31]	+++ (“+++” equals ≤1 μM)	+++ (cell loss of greater than 50 percent at a concentration that equals or is less than 1 μM was represented as “+++.”)
c1cnc2nc(-c3ccncc3)nc(Nc3ccc4[nH]ccc4c3)c2c1 [Compound 81]	+++ (“+++” equals ≤1 μM)	++ (cell loss of greater than 50 percent at a concentration less than 25 μM and greater than 1 μM was represented as)
Cc1nc2cc(Nc3nc(-c4ccncc4)nc4ccccc34)ccc2s1 [Compound 95]	+ (“+” equals >25 μM)	+ (cell loss of greater than 50 percent at a concentration that equals or is greater than 25 μM was represented as)
Cc1nc2ccc(Nc3nc(-c4ccncc4)nc4ccccc34)cc2o1 [Compound 34]	+++ (“+++” equals ≤1 μM)	+ (cell loss of greater than 50 percent at a concentration that equals or is greater than 25 μM was represented as)
Oc1ccc(-c2nc(Nc3ccc4[nH]ncc4c3)c3ccccc3n2)cc1 [Compound 64]	++ (“++” equals between ≤25 μM and >1 μM)	++ (cell loss of greater than 50 percent at a concentration less than 25 μM and greater than 1 μM was represented as)
Cc1cc(Nc2nc(-c3ccncc3)nc3ccccc23)ccc1N [Compound 58]	++ (“++” equals between ≤25 μM and >1 μM)	+ (cell loss of greater than 50 percent at a concentration that equals or is greater than 25 μM was represented as)
c1ccc2c(Nc3ccc4cnsc4c3)nc(-c3ccncc3)nc2c1 [Compound 24]	+++ (“+++” equals ≤1 μM)	+ (cell loss of greater than 50 percent at a concentration that equals or is greater than 25 μM was represented as)
Cc1cc(Br)cc(Nc2nc(-c3ccncc3)nc3ccccc23)c1 [Compound 55]	+ (“+” equals >25 μM)	+ (cell loss of greater than 50 percent at a concentration that equals or is greater than 25 μM was represented as)
c1cc(-c2cc3cnccc3c(Nc3ccc4nc(C5CC5)sc4c3)n2)ccn1 [Compound 398]	+++ (“+++” equals ≤1 μM)	+ (cell loss of greater than 50 percent at a concentration that equals or is greater than 25 μM was represented as)
